In patent US20260144752A1, “Multilamellar Vesicles and Methods and Uses Thereof” (ChromoLogic LLC, priority 2022, published 2026):

How the values were obtained:
ROS = ROS levels in cells exposed to IR; assay type: cell-based; details: cells exposed to 5 Gy IR, FIG. 5C
From the text: (§1) In various embodiments JP4-039-MLV nanoparticles protect cells from IR-induced oxidative stress. In addition to DNA damage, IR-induced oxidative stress can result in lipid peroxidation, mitochondrial membrane permeability, and an increase in ROS concentration. FIGS. 5A-5C provide exemplary data of an embodiment showing reduction of IR-induced cellular dysregulation.

[1] = cited from earlier work
lipid peroxidation = test: Lipid peroxidation in cells exposed to IR; assay type: cell-based; details: cells exposed to 5 Gy IR, FIG. 5A
From the text: as §1

[2] = cited from earlier work; remark: listed apart in the source
[3] = tested on: mitochondrial membrane permeability; test: Mitochondrial membrane permeability in cells exposed to IR; assay type: cell-based; details: cells exposed to 10 Gy IR, FIG. 5B
From the text: as §1

[4] = tested on: γ-H2AX+ intestinal crypt cells; details: mice, 9.25 Gy TBI; cited from earlier work
[5] = stated for comparison; cited from earlier work
γ-H2AX = test: IR-induced DNA double strand breaks, γ-H2AX immunohistochemistry in irradiated cells; assay type: cell-based; details: cells treated prior to irradiation of 0 Gy and 5 Gy, FIGS. 4A-4B
From the text: In various embodiments JP4-039-MLVs have the ability to reduce IR-induced DNA double strand breaks (DSBs). IR induces DNA damage resulting in double strand breaks that can result in mitotic failure and cell death. Secondary oxidative stress induces further DNA damage. In response to double strand breaks, the histone H2AX is rapidly phosphorylated, producing γ-H2AX, a standard biomarker of DNA damage. […] FIGS. 4A-4B illustrate exemplary data from an embodiment showing the ability to reduce DNA DSBs. Specifically, FIG. 4A provides confocal images of cells treated with DMSO (control), JP4-039, and JP4-039-MLVs prior to irradiation of 0 Gy and 5 Gy. Cell nuclei are stained with DAPI (blue) and γ-H2AX is visualized by immunohistochemistry (green), while FIG. 4B illustrates relative frequency of γ-H2AX+ cells by counting blue puncta and green puncta.

JP4-039
ROS levels (ROS): reduced ROS levels | survival following TBI ([1]; hematopoietic- or gastrointestinal-ARS-inducing doses of TBI): increasing survival | time window of effectiveness relative to irradiation ([1]; in vivo radiation survival studies): effective 24 h prior to 72 h after irradiation | levels of lipid peroxidation (lipid peroxidation): reduce levels of lipid peroxidation | solubility in an aqueous environment [2]: very low solubility | levels of mitochondrial membrane permeability [3]: reduced levels of mitochondrial membrane permeability | number of γ-H2AX+ intestinal crypt cells [4]: reduce the number of γ-H2AX+ intestinal crypt cells | in vivo half-life [5]: approximately 6 hours | protection from IR-induced DNA damage (relative frequency of γ-H2AX+ cells) (γ-H2AX): protected cells from IR-induced DNA damage
